The record followed here is patent publication US9586968B2, “Bicycloamine-substituted-N-benzenesulfonamide compounds with selective activity in voltage-gated sodium channels” (Merck Sharp & Dohme Corp., priority 2013, dated 2017).

Molecules are shown by their SMILES.

One assay concerns the target T1, human Nav1.7 (Homo sapiens, UniProt Q15858).
T1 construct: expressed in transfected cells
As to the kind of experiment: PatchXpress automated patch-clamp, inactivated state block of Nav1.7. It is filed as cell-based. The conditions noted are these: channels stably expressed in HEK 293 cells, 22° C., read-out: potency for the Nav 1.7 sodium ion channel (as measured by PatchXpress). How it is done: (§1) Compounds were tested on human Nav1.7 and Nav1.5 channels stably expressed in HEK 293 cells. Activity toward Nav 1.7 and Nav 1.5 channels was assessed using the following assay methodology.
(§2) Sodium Current Measurements on the PatchXpress 7000®:
(§3) To measure inactivated state block of sodium channels, test compounds were characterized in an automated PatchXpress® assay (Molecular Devices) using a double-pulse protocol on human Nav1.7 and Nav1.5 channels stably expressed in HEK 293 cells. Cells were held at a potential 20 mV negative to V0.5 inact. An 8000 ms pre-pulse 7 mV positive to V0.5 inact was given followed by a hyperpolarizing 2 ms pulse to −120 mV and a 20 ms test pulse to −20 mV. Protocol was applied to cells in the absence, presence of compound and after washout. The temperature of PatchXpress instruments was maintained at 22° C. The following recording solutions were used. Internal solution (mM): 30 CsCl, 5 HEPES, 10 EGTA, 120 CsF, 5 NaF, 2 MgCl2. External solution (mM): 120 NMDG, 40 NaCl, 1 KCl, 0.5 MgCl2, 5 HEPES, 2.7 CaCl2.
(§4) For all electrophysiology experiments, offline analysis was used to correct for current rundown and to determine percent inhibition as a function of drug concentration. IC50 values were determined by fitting to the Hill equation.

In a further assay the target is T2, human Nav1.5 (Homo sapiens, UniProt Q14524).
T2 construct: expressed in transfected cells
T2 sequence (Q14524 whole entry): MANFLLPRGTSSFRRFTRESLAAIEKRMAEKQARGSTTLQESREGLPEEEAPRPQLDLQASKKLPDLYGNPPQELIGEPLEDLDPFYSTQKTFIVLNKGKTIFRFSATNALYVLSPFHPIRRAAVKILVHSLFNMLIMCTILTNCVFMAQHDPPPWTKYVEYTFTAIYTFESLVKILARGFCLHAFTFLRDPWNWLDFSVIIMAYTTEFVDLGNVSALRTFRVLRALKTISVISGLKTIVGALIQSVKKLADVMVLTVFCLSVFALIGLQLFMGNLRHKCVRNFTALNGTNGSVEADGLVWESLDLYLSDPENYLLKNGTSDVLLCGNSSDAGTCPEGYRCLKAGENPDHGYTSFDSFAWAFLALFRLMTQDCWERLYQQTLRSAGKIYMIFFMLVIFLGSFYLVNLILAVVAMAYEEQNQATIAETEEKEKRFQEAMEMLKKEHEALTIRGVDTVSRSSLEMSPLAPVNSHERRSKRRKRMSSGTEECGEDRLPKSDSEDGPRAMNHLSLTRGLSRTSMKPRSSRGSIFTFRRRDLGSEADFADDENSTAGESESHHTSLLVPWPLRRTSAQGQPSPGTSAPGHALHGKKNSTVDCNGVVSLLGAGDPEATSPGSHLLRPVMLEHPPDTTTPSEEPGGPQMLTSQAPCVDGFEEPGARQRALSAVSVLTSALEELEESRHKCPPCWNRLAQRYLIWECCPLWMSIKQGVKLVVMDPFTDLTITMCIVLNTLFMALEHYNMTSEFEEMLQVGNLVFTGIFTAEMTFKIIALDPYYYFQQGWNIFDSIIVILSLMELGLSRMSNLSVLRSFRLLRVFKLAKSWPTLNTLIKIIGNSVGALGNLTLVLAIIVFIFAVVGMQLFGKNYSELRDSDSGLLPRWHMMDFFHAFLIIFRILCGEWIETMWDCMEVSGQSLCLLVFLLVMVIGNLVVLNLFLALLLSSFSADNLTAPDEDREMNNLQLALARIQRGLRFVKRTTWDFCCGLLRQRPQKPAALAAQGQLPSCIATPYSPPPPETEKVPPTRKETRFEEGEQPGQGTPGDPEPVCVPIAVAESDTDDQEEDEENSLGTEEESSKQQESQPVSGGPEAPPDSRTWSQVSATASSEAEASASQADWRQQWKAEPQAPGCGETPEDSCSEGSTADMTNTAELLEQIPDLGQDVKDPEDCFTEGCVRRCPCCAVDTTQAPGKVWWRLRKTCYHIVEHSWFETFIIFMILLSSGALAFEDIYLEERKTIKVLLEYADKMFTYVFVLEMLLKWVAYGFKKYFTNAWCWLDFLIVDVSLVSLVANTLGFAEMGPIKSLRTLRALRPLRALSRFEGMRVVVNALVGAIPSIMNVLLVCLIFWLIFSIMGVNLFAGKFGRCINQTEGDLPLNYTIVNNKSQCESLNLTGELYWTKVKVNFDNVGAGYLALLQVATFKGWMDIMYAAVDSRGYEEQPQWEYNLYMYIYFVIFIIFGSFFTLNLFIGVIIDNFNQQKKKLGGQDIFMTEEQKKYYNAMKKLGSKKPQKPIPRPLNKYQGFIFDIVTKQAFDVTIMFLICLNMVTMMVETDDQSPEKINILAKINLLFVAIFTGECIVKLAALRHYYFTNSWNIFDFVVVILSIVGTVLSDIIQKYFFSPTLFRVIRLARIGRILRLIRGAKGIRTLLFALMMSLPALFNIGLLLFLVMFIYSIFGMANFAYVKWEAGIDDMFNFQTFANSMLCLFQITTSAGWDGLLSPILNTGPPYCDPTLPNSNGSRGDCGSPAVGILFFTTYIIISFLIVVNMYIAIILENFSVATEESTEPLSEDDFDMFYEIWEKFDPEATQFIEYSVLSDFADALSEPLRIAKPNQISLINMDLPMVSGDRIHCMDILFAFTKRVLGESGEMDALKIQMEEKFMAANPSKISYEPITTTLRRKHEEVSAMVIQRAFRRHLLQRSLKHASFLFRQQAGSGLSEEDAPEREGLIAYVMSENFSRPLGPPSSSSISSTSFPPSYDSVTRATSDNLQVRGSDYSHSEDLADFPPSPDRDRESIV
As to the kind of experiment: PatchXpress automated patch-clamp, inactivated state block of Nav1.5 (selectivity). The assay is classed as cell-based. To be noted: determined by PatchXpress measurement, HEK 293 cells. As to the method:
as §1, §2, §3, §4
On the technique in general: Patch clamp records ionic current or voltage across a cell membrane.

T1 sequence (Q15858 whole entry): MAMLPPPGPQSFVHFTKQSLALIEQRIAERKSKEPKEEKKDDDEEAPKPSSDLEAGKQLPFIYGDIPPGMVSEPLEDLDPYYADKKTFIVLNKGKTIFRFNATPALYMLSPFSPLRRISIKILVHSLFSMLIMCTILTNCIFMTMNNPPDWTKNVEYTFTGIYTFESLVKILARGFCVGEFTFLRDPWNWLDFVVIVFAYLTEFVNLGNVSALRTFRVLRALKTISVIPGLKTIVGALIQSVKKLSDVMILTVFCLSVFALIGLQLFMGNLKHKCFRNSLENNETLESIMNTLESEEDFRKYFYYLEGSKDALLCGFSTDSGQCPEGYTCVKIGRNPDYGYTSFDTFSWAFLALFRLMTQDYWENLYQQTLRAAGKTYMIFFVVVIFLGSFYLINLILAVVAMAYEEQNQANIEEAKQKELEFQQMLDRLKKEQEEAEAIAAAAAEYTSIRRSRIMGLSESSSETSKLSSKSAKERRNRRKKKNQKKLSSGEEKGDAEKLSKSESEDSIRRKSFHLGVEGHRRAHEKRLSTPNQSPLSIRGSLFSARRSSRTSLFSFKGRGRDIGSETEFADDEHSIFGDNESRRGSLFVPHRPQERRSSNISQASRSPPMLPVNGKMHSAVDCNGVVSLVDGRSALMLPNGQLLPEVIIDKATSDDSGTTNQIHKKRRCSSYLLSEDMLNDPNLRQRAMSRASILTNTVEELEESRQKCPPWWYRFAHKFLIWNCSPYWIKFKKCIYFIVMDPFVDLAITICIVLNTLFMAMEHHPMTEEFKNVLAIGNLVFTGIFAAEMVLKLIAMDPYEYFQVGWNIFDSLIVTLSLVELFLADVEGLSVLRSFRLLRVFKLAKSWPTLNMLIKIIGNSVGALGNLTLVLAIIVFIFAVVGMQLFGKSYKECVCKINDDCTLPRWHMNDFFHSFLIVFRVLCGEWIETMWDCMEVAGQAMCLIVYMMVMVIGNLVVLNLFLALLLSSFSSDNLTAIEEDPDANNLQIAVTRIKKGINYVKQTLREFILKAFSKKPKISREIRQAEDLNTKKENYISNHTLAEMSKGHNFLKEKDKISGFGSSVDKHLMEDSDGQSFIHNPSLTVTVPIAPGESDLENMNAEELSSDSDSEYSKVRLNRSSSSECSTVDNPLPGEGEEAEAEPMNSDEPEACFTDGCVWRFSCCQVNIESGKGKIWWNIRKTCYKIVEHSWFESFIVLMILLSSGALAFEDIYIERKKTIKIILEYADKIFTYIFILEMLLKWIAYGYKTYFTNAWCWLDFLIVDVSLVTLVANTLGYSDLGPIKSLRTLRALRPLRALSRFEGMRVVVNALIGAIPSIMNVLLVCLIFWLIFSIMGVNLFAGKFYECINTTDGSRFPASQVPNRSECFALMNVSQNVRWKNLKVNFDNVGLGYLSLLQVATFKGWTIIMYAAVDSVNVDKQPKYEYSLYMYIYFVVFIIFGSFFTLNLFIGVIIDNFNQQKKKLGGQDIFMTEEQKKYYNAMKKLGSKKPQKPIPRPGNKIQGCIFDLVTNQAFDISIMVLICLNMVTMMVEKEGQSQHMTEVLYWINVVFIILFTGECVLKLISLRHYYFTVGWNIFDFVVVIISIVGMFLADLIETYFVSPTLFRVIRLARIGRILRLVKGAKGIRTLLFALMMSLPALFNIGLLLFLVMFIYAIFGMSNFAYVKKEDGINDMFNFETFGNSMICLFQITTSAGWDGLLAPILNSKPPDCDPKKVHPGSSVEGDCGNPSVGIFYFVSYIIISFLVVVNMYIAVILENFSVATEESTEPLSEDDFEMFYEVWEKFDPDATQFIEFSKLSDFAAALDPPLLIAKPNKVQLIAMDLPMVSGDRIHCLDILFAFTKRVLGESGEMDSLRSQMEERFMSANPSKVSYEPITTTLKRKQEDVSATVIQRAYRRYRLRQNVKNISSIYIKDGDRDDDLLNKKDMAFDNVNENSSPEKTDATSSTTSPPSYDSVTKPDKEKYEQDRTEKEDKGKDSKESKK

For the molecule `O=S(=O)(Nc1nccs1)c1cc(Cl)c(NC[C@@]23CCCN2CC2(CC2)C3)cc1F` (single isomer, unassigned) [Ex13-10-A], on human Nav1.7, the IC50 worked out at 126 nM. Also, at human Nav1.5, the “ratio of Nav1.7 potency:Nav 1.5 potency” value is recorded as 113.

Turning to `O=S(=O)(Nc1nccs1)c1cc(Cl)c(NC[C@]23CCCN2CC2(C3)OCCO2)cc1F` (single isomer, unassigned) [Ex10-7-A], the IC50 on human Nav1.7 turned out to be 10 nM. The “ratio of Nav1.7 potency:Nav 1.5 potency” value at human Nav1.5 came out at 3074.

Turning to `N#Cc1cc(S(=O)(=O)Nc2ncc(Cl)s2)c(F)cc1NCC12CCCN1CCC2` [Ex1-11, N-(5-chloro-1,3-thiazol-2-yl)-5-cyano-2-fluoro-4-[(tetrahydro-1H-pyrrolizin-7a(5H)-ylmethyl)amino]benzene-sulfonamide], on human Nav1.7, the IC50 was determined as 35 nM. In addition, the “ratio of Nav1.7 potency:Nav 1.5 potency” value on human Nav1.5 worked out at 469.

For `CC1(C)CN2CCCC2(CNc2cc(F)c(S(=O)(=O)Nc3ncc(Cl)s3)cc2Cl)C1` (single isomer, unassigned) [Ex8-19-A, (R or S) 5-chloro-N-(5-chlorothiazol-2-yl)-4-(((2,2-dimethylhexahydro-1H-pyrrolizin-7a-yl)methyl)amino)-2-fluorobenzenesulfonamide], at human Nav1.7, the IC50 was 14 nM. Further, the “ratio of Nav1.7 potency:Nav 1.5 potency” value on human Nav1.5 was determined as 812.

Consider `COc1ccc(CC2CN3CCCC3(CNc3cc(F)c(S(=O)(=O)Nc4ncc(F)s4)cc3Cl)C2)cc1` (single isomer, unassigned) [Ex15-12-B, 5-chloro-2-fluoro-N-(5-fluorothiazol-2-yl)-4-((((2S,7aR or 2R,7aS)-2-(4-methoxybenzyl)hexahydro-1H-pyrrolizin-7a-yl)methyl)amino)benzene-sulfonamide], for which the IC50 at human Nav1.7 worked out at 66 nM. Further, the “ratio of Nav1.7 potency:Nav 1.5 potency” value at human Nav1.5 turned out to be 99.

With `O=S(=O)(Nc1nccs1)c1cc(Cl)c(NCC23CCCCN2CCC3)cc1F` (single isomer, unassigned) [Ex17-7-A, (S or R) 5-chloro-2-fluoro-4-(((octahydroindolizin-8a-yl)methyl)amino)-N-(thiazol-2-yl)benzenesulfonamide], at human Nav1.7, the IC50 was found to be 113 nM. Further, the “ratio of Nav1.7 potency:Nav 1.5 potency” value on human Nav1.5 was determined as 450.

As to `O=S(=O)(Nc1ncc(F)s1)c1cc(Cl)c(NCC23CCCN2CC(F)C3)cc1F` (single isomer, unassigned) [Ex9-10-A, 5-chloro-2-fluoro-4-((((2R,7aS or 2S,7aR)-2-fluoro-hexahydro-1H-pyrrolizin-7a-yl)-methyl)amino)-N-(5-fluorothiazol-2-yl)-benzenesulfonamide], on human Nav1.7, the IC50 is 148 nM. Further, the “ratio of Nav1.7 potency:Nav 1.5 potency” value at human Nav1.5 is listed as 137.

`CC1(C)CN2CCCC2(CNc2ccc(S(=O)(=O)Nc3nccs3)cc2C(F)(F)F)C1` (single isomer, unassigned) [Ex8-23-B, (S or R) 4-(((2,2-dimethylhexahydro-1H-pyrrolizin-7a-yl)methyl)amino)-N-(thiazol-2-yl)-3-(trifluoromethyl)-benzenesulfonamide]: at human Nav1.7, the IC50 is 31 nM. Further, the “ratio of Nav1.7 potency:Nav 1.5 potency” value on human Nav1.5 was 981.

As to `CC1(C)CN2CCCC2(CNc2ccc(S(=O)(=O)Nc3nccs3)cc2C(F)(F)F)C1` (single isomer, unassigned) [Ex8-23-A, (R or S) 4-(((2,2-dimethylhexahydro-1H-pyrrolizin-7a-yl)methyl)-amino)-N-(thiazol-2-yl)-3-(trifluoromethyl)benzene-sulfonamide], the IC50 at human Nav1.7 was determined as 172 nM. Besides, the “ratio of Nav1.7 potency:Nav 1.5 potency” value on human Nav1.5 was 175.

For the molecule `N#Cc1cc(S(=O)(=O)Nc2ncns2)ccc1NCC12CCCN1CCC2` [Ex1-6, 3-cyano-4-[(tetrahydro-1H-pyrrolizin-7a(5H)-ylmethyl)amino]-N-(1,2,4-thiadiazol-5-yl)benzenesulfonamide], the IC50 at human Nav1.7 was 86 nM. Also, the “ratio of Nav1.7 potency:Nav 1.5 potency” value at human Nav1.5 is on record as 349.

Take `CCc1cc(S(=O)(=O)Nc2nccs2)c(F)cc1NCC12CCCN1CC(C)(C)C2` (single isomer, unassigned) [Ex18-9-A, (S or R)-4-(((2,2-dimethylhexahydro-1H-pyrrolizin-7a-yl)-methyl)-amino)-5-ethyl-2-fluoro-N-(thiazol-2-yl)-benzenesulfonamide]: on human Nav1.7, the IC50 was 55 nM. Also, the “ratio of Nav1.7 potency:Nav 1.5 potency” value at human Nav1.5 turned out to be 548.

As for `O=S(=O)(Nc1ncc(F)s1)c1ccc(NCC23CCCN2CC2(CC2)C3)c(C(F)(F)F)c1` (single isomer, unassigned) [Ex13-12-B, (R or S)-N-(5-fluorothiazol-2-yl)-4-(((hexahydrospiro-[cyclopropane-1,2′-pyrrolizin]-7a′-yl)methyl)-amino)-3-(trifluoromethyl)-benzenesulfonamide], the IC50 on human Nav1.7 was 7 nM. Also, the “ratio of Nav1.7 potency:Nav 1.5 potency” value at human Nav1.5 was 3240.

For the molecule `O=S(=O)(Nc1nccs1)c1cc(Cl)c(NC[C@]23CCCN2CC2(CC2)C3)cc1F` (single isomer, unassigned) [Ex13-10-B], the IC50 at human Nav1.7 was found to be 16 nM. The “ratio of Nav1.7 potency:Nav 1.5 potency” value at human Nav1.5 is listed as 406.

For the molecule `COc1ccc(C[C@@H]2CN3CCC[C@]3(CNc3cc(F)c(S(=O)(=O)Nc4nccs4)cc3Cl)C2)cc1` (single isomer, unassigned) [Ex15-10-B], on human Nav1.7, the IC50 was 30 nM. At human Nav1.5, the “ratio of Nav1.7 potency:Nav 1.5 potency” value is 308.

With `O=S(=O)(Nc1ncc(F)s1)c1ccc(NCC23CCCN2CC(F)C3)c(C(F)(F)F)c1` (single isomer, unassigned) [Ex9-12-A, 4-((((2R,7aS or 2S,7aR)-2-fluoro-hexahydro-1H-pyrrolizin-7a-yl)-methyl)amino)-N-(5-fluorothiazol-2-yl)-3-(trifluoromethyl)-benzenesulfonamide], at human Nav1.7, the IC50 was determined as 89 nM. Moreover, the “ratio of Nav1.7 potency:Nav 1.5 potency” value on human Nav1.5 was 338.

On to `CC1(C)CN2CCCC2(CNc2cc(F)c(S(=O)(=O)Nc3ncc(F)s3)cc2Cl)C1` (single isomer, unassigned) [Ex8-21-B, (S or R) 5-chloro-4-(((2,2-dimethylhexahydro-1H-pyrrolizin-7a-yl)methyl)-amino)-2-fluoro-N-(5-fluorothiazol-2-yl)-benzenesulfonamide], for which, at human Nav1.7, the IC50 is 23 nM. Moreover, on human Nav1.5, the “ratio of Nav1.7 potency:Nav 1.5 potency” value worked out at 1290.

On to `O=S(=O)(Nc1nccs1)c1cc(Cl)c(NC[C@@]23CCCN2CC2(C3)OCCO2)cc1F` (single isomer, unassigned) [Ex10-7-B], for which the IC50 at human Nav1.7 came out at 32 nM. Also, the “ratio of Nav1.7 potency:Nav 1.5 potency” value at human Nav1.5 came to 935.

Take `O=S(=O)(Nc1ncc(Cl)s1)c1cc(Cl)c(NCC23CCCN2CC2(C3)OCCO2)cc1F` (single isomer, unassigned) [Ex10-9-A, (S or R)-5-chloro-N-(5-chlorothiazol-2-yl)-2-fluoro-4-(((hexahydro-spiro[[1,3]dioxolane-2,2′-pyrrolizin]-7a′-yl)-methyl)amino)-benzenesulfonamide]: the IC50 at human Nav1.7 stood at 25 nM. Moreover, the “ratio of Nav1.7 potency:Nav 1.5 potency” value at human Nav1.5 is reported as 1210.

For `C[C@H]1CC[C@]2(CNc3cc(F)c(S(=O)(=O)Nc4nccs4)cc3Cl)CCCN12` (single isomer, unassigned) [Ex11-8-A], the IC50 at human Nav1.7 amounted to 35 nM. Also, the “ratio of Nav1.7 potency:Nav 1.5 potency” value at human Nav1.5 came to 305.

Turning to `O=S(=O)(Nc1ccc(F)cn1)c1cc(Cl)c(NCC23CCCN2CCC3)cc1F` [Ex3-7, 5-chloro-2-fluoro-N-(5-fluoropyridin-2-yl)-4-[(tetrahydro-1H-pyrrolizin-7a(5H)-ylmethyl)amino]benzene-sulfonamide], the IC50 on human Nav1.7 was determined as 320 nM. Moreover, at human Nav1.5, the “ratio of Nav1.7 potency:Nav 1.5 potency” value turned out to be 94.

For `O=S(=O)(Nc1nccs1)c1cc(Cl)c(NCC23CCCN2CCC3)cc1Br` [Ex12-5, 2-bromo-5-chloro-4-(((hexahydro-1H-pyrrolizin-7a-yl)methyl)amino)-N-(thiazol-2-yl)benzenesulfonamide], on human Nav1.7, the IC50 was 41 nM. For the same molecule, the “ratio of Nav1.7 potency:Nav 1.5 potency” value on human Nav1.5 turned out to be 288.

As to `CC(Nc1cc(F)c(S(=O)(=O)Nc2nccs2)cc1Cl)C12CCCN1CCC2` (single isomer, unassigned) [Ex5-8, 5-chloro-2-fluoro-4-{[(R or S)1-(tetrahydro-1H-pyrrolizin-7a(5H)-yl)ethyl]amino}-N-(1,3-thiazol-2-yl)benzenesulfonamide], the IC50 at human Nav1.7 is 52 nM. At human Nav1.5, the “ratio of Nav1.7 potency:Nav 1.5 potency” value came to 407.

On to `CCc1cc(S(=O)(=O)Nc2nccs2)c(F)cc1NC[C@@]12CCCN1C[C@H](Cc1ccc(OC)cc1)C2` (single isomer, unassigned) [Ex18-5-A], for which the IC50 at human Nav1.7 amounted to 9 nM. For the same molecule, the “ratio of Nav1.7 potency:Nav 1.5 potency” value at human Nav1.5 is listed as 315.

In the case of `Cc1cc(NCC23CCCN2CCC3)c(Cl)cc1S(=O)(=O)Nc1nccs1` [Ex12-7, 5-chloro-4-(((hexahydro-1H-pyrrolizin-7a-yl)methyl)amino)-2-methyl-N-(thiazol-2-yl)benzenesulfonamide], the IC50 on human Nav1.7 was 26 nM. On human Nav1.5, the “ratio of Nav1.7 potency:Nav 1.5 potency” value is 163.

For the molecule `Cc1cc(S(=O)(=O)Nc2nccs2)c(F)cc1NCC12CCCN1CCC2` [Ex1-15, 2-fluoro-4-(((hexahydro-1H-pyrrolizin-7a-yl)methyl)amino)-5-methyl-N-(thiazol-2-yl)benzenesulfonamide], the IC50 on human Nav1.7 was determined as 34 nM. Besides, the “ratio of Nav1.7 potency:Nav 1.5 potency” value on human Nav1.5 is 1149.
